Source: patent publication US10335411B2, “Administration of ubiquitin-activating enzyme inhibitor and radiation” (Millennium Pharmaceuticals, Inc., priority 2014, dated 2019)
Several values for one entry are separate records, joined by “and”; a condition that tells them apart may be missing. Equal values may be shown once.

Tests used:
HN-13-0014 xenograft = HN-13-0014 xenograft model, Compound 1 and radiation; format: in vivo, mice
Description: The HN-13-0014 xenograft model is a human head and neck primary tumor model. Approximately nine week old female BALB/c nude (Shanghai Sino-British SIPPR/BK Laboratory Animal Co., LTD.) mice were implanted subcutaneously with approximate 30 mm^3 HN-13-0014 tumor slices in the right flank. When the mean tumor volume reached approximately 162 mm^3, the animals were randomized into 10 treatment groups (n=8/group).
Compound 1 [((1R,2R,3S,4R)-2,3-dihydroxy-4-(2-(3-(trifluoromethylthio) ? phenyl)pyrazolo[1,5-a]pyrimidin-7-ylamino)cyclopentyl)methyl sulfamate] is formulated in 10% HPbCD in sterile water and administered intravenously on a BIW (twice/week schedule; Monday and Thursday, i.e. days 0, 3, 7, 10, 14, 17) for 3 weeks in the HN-13-0014 and LU-01-0030 (first study) models. Compound 1 formulation was prepared weekly and stored at room temperature in the dark.
Beam-focused radiation was delivered using a either 1 or 2 Gray dosed on days 0, 1, 7, and 8 or on days 0, 3, 7, and 10 in the HN-13-0014 and LU-01-0030 (first study) models. A Rad Source RS-2000 X-ray irradiator was used for therapy (Rad Source). Before radiation, animals were anesthetized by i.p. injection using 1.0% sodium pentobarbital at 80 mg/kg (Vendor: Sigma). Focused radiation was applied to each mouse at 1 Gy/min.
Tumors were measured twice weekly using vernier calipers. Tumor volumes were calculated using the following formula: (0.5×[length×width^2]). Treatment groups and dosing/treatment schedules are indicated in Tables 1a, 2a, 3a, 4a, and 5a below. Tumor size and body weight are measured approximately twice a week for the duration of the study. Mice are euthanized when their tumor volume reached approximately 1000 mm^3. Tumor growth continued to be monitored after the dosing period in some studies. In Tables 1a, 2a, 3a, 4a, and 5a tumor volumes are shown for HN-13-0014 (day 21), LU-01-0030 (day 21), the second LU-01-0030 study (day 20), LU-01-0266 (day 20), ST-02-0004 (day 21) and FIN-13-0007 (day 24), respectively. Average tumor volume is reported as a function of time for selected groups of selected studies.
Measurements from day 0 to day 20, day 21 or day 24 are analyzed as specified in Tables below. All tumor volumes have a value of 1 added to them before log10 transformation. For each animal, the log tumor volume at day 0 is subtracted from the log tumor volume on the subsequent days. This difference vs. time is used to calculate an area under the curve (AUC) for each animal using the trapezoid rule. In instances when an animal in a treatment group is removed early from the study, the last observed tumor value is carried forward through all subsequent time points. The synergy score for the combination of agents A and B is defined as 100*(mean(AUCAB)−mean(AUCA)−mean(AUCB)+mean(AUCctl))/mean(AUCctl): where AUCAB, AUCA, AUCB, and AUCctl are the AUC values for animals in the combination group, the A group, the B group, and the control group, respectively. The standard error of the synergy score is computed based on the variation in the AUC values among the animals. […] If the P-value is above 0.05, then the combination is considered to be additive. If the P-value is below 0.05, and the synergy score is less than zero, then the combination is considered to be synergistic. If the P-value is below 0.05 and the synergy score was greater than zero, but the mean AUC for the combination was lower than the lowest mean AUC among the two single agent treatments, then the combination was sub-additive. If the P-value is below 0.05 and if the synergy score was greater than zero, and the mean AUC for the combination was greater than the mean AUC for at least one of the single agent treatments, then the combination was antagonistic.

HCT-116 cells = assay: In vitro colony formation assay; format: cell-based; details: after 10 days, replicate wells
Description: General Method: HCT-116 cells are grown in McCoy's 5A Medium supplemented with 10% fetal bovine serum. Cells are seeded (200/well) on a 12-well plate. The next day cells are treated with increasing concentrations of Compound 1 (in medium) and 2 hours later irradiated with 0, 2 or 4 gray. After an additional 6 hour, medium is replaced with and without (washout condition) Compound 1. After 10 days the number of colonies is counted and recorded. Radiator used is an X-ray irradiator (MBR-1520R-3, Hitachi Power Solutions Co., Ltd.).
Ten days following initiation of treatment, the number of HCT-116 colonies per well is counted using GelCount™ (Oxford Optronix Ltd.) and the raw data results are indicated in Table 6.

[1] = 6.25 mg/kg Compound 1 + 2 Gy Radiation D0, 1, 7, 8
[2] = 6.25 mg/kg Compound 1 + 2 Gy Radiation D0, 3, 7, 10
[3] = 15 mg/kg Compound 1 + 2 Gy Radiation D0, 1, 7, 8
[4] = 15 mg/kg Compound 1 + 2 Gy Radiation D0, 3, 7, 10

## NS(=O)(=O)OC[C@H]1C[C@@H](Nc2ccnc3cc(-c4cccc(SC(F)(F)F)c4)nn23)[C@H](O)[C@@H]1O [Compound 1, ((1R,2R,3S,4R)-2,3-dihydroxy-4-(2-(3-(trifluoromethylthio)phenyl)pyrazolo[1,5-a]pyrimidin-7-ylamino)cyclopentyl)methyl sulfamate]
HN-13-0014 xenograft; [1]
  Classification: Additive (If the P-value is above 0.05, then the combination is considered to be additive)
  Synergy score: 8.6
HN-13-0014 xenograft; [2]
  Classification: Additive (If the P-value is above 0.05, then the combination is considered to be additive)
  Synergy score: 7.7
HN-13-0014 xenograft; 6.25 mg/kg Compound 1 IV BIWx3 + 2 Gy Radiation Beam D 0, 1, 7, 8
  Tumor Volume Day 21: 392.7 mm^3
HN-13-0014 xenograft; 6.25 mg/kg Compound 1 IV BIWx3 + 2 Gy Radiation Beam D 0, 3, 7, 10
  Tumor Volume Day 21: 381.9 mm^3
HN-13-0014 xenograft; 6.25 mg/kg Compound 1 IV BIWx3, single agent
  Tumor Volume Day 21: 575.9 mm^3
HN-13-0014 xenograft; [3]
  Classification: Additive (If the P-value is above 0.05, then the combination is considered to be additive)
  Synergy score: 7.9
HN-13-0014 xenograft; [4]
  Classification: Additive (If the P-value is above 0.05, then the combination is considered to be additive)
  Synergy score: 3.2
HN-13-0014 xenograft; 15 mg/kg Compound 1 IV BIWx3 + 2 Gy Radiation Beam D 0, 1, 7, 8
  Tumor Volume Day 21: 372.4 mm^3
HN-13-0014 xenograft; 15 mg/kg Compound 1 IV BIWx3 + 2 Gy Radiation Beam D 0, 3, 7, 10
  Tumor Volume Day 21: 356.2 mm^3
HN-13-0014 xenograft; 15 mg/kg Compound 1 IV BIWx3, single agent
  Tumor Volume Day 21: 539.9 mm^3
HN-13-0014 xenograft; Compound 1 with 2 Gy radiation
  combination effect: additive combination effect
HN-13-0014 xenograft; single agent, IV at 6.25 and 15 mg/kg BIW for 3 weeks
  anti-tumor activity compared to vehicle control: modest anti-tumor activity
HCT-116 cells; Washout No, Radiation 0 Gray, Compound 1 30 nM
  Number of Colonies/well: 0
HCT-116 cells; Washout No, Radiation 0 Gray, Compound 1 100 nM
  Number of Colonies/well: 0
HCT-116 cells; Washout No, Radiation 0 Gray, Compound 1 300 nM
  Number of Colonies/well: 0
HCT-116 cells; Washout No, Radiation 2 Gray, Compound 1 30 nM
  Number of Colonies/well: 0
HCT-116 cells; Washout No, Radiation 2 Gray, Compound 1 100 nM
  Number of Colonies/well: 0
HCT-116 cells; Washout No, Radiation 2 Gray, Compound 1 300 nM
  Number of Colonies/well: 0
HCT-116 cells; Washout No, Radiation 4 Gray, Compound 1 30 nM
  Number of Colonies/well: 0
HCT-116 cells; Washout No, Radiation 4 Gray, Compound 1 100 nM
  Number of Colonies/well: 0
HCT-116 cells; Washout No, Radiation 4 Gray, Compound 1 300 nM
  Number of Colonies/well: 0
HCT-116 cells; Washout Yes, Radiation 0 Gray, Compound 1 30 nM
  Number of Colonies/well: 20 (2×) and 26
HCT-116 cells; Washout Yes, Radiation 0 Gray, Compound 1 100 nM
  Number of Colonies/well: 1 (2×) and 0
HCT-116 cells; Washout Yes, Radiation 0 Gray, Compound 1 300 nM
  Number of Colonies/well: 0
HCT-116 cells; Washout Yes, Radiation 2 Gray, Compound 1 30 nM
  Number of Colonies/well: 3 and 7 and 6
HCT-116 cells; Washout Yes, Radiation 2 Gray, Compound 1 100 nM
  Number of Colonies/well: 0
HCT-116 cells; Washout Yes, Radiation 2 Gray, Compound 1 300 nM
  Number of Colonies/well: 0
HCT-116 cells; Washout Yes, Radiation 4 Gray, Compound 1 30 nM
  Number of Colonies/well: 1 (2×) and 4
HCT-116 cells; Washout Yes, Radiation 4 Gray, Compound 1 100 nM
  Number of Colonies/well: 0 (2×) and 1
HCT-116 cells; Washout Yes, Radiation 4 Gray, Compound 1 300 nM
  Number of Colonies/well: 0
